This is an account of results in ChEMBL document CHEMBL1201862, “PubChem BioAssay data set” (2004).

Structures are written as SMILES.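 Cells were grown in 96-well plates and exposed to each compound for 48 hours at five concentrations; endpoints were interpolated linearly between bracketing concentrations, or set to the highest concentration if not reached. At the GI50, growth is halved.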 The source made the active and inactive calls. No stated cut-off is given here; in the data, active = GI50 up to about 1.1 µM and inactive = higher.

Test systems include 786-0; A549; CAKI-1; COLO 205; HCT-15; Hs-578T; MDA-MB-231; Malme-3M; NCI-H226; NCI-H460; NCI-H522; OVCAR-4; OVCAR-5; SF-268; SF-295; SF-539; SK-MEL-2; SN12C; TK-10; UACC-62.
Holding throughout (experiment): NCI tumour cell line growth inhibition, 48 h

As for `CC(C)N1[C@@H]2CCCC[C@H]2N(C(C)C)P1(=O)C(=O)/C=C/c1ccccc1`, the GI50 in the assay on 786-0 is 1.81 µM (inactive); in the assay on A549, 3.35 µM (inactive); in the assay with CAKI-1, 2.54 µM (inactive); with COLO 205, 1.91 µM (inactive); with HCT-15, 1.92 µM; in the assay on Hs-578T, 1.71 µM (inactive). Also, the GI50 was 2.98 µM (inactive) in the assay with MDA-MB-231; 1 µM (active) in the assay on Malme-3M; 3.52 µM (inactive) in the assay with NCI-H226; 2.97 µM (inactive) in the assay with NCI-H460; 1.53 µM (inactive) with NCI-H522; 1.67 µM (inactive) with OVCAR-4. Also, the GI50 in the assay with OVCAR-5 is 2.37 µM (inactive); with SF-268 it was 2.44 µM (inactive); with SF-295 it was 10.6 µM (inactive); in the assay on SF-539 it was 1.82 µM (inactive); in the assay with SK-MEL-2, 2.72 µM (inactive); with SN12C it was 1.99 µM (inactive). For the same compound, the GI50 in the assay with TK-10 was 3.51 µM (inactive); in the assay on UACC-62 it was 2.57 µM (inactive).
Consider `COC(=O)/C(=C/c1ccc(OC)cc1)c1cc(OC)c(OC)c(OC)c1`, for which the GI50 with 786-0 was 4.12 µM (inactive); in the assay on A549, 2.99 µM (inactive); in the assay on CAKI-1, 1.12 µM (inactive); in the assay on COLO 205 it was 1.47 µM (inactive); in the assay with HCT-15, 0.646 µM; in the assay with Hs-578T, 0.957 µM (active). The GI50 with MDA-MB-231 was 3.38 µM (inactive); in the assay on Malme-3M it was 1.2 µM (inactive); with NCI-H226 it was 6.55 µM (inactive); in the assay on NCI-H460, 5.11 µM (inactive); with NCI-H522, 0.614 µM (active); with OVCAR-4, 7.43 µM (inactive). Moreover, the GI50 in the assay on OVCAR-5 was 14.9 µM (inactive); with SF-268, 6.01 µM (inactive); in the assay with SF-295, 0.706 µM (active); in the assay with SF-539, 1.55 µM (inactive); in the assay on SK-MEL-2, 3.18 µM (inactive); with SN12C, 5.08 µM (inactive). In addition, the values for the GI50 with TK-10 and with UACC-62 were 5.62 µM (inactive) and 0.631 µM (active), respectively.
For `OC(O)(C(F)(F)F)C(F)(F)F`, the GI50 is > 100 µM (inactive) in the assay with 786-0; > 100 µM (inactive) in the assay with A549; > 100 µM (inactive) with CAKI-1; > 100 µM (inactive) in the assay on COLO 205; above 100 µM in the assay with HCT-15; > 100 µM (inactive) in the assay on Hs-578T. The GI50 in the assay on MDA-MB-231, in the assay on Malme-3M, in the assay on NCI-H226, in the assay on NCI-H460, in the assay on NCI-H522 and in the assay with OVCAR-4 was > 100 µM (inactive) throughout. For the same compound, the GI50 with OVCAR-5, with SF-268, in the assay on SF-295, in the assay on SF-539, with SK-MEL-2 and in the assay on SN12C was > 100 µM (inactive) in each case. Besides, the GI50 with TK-10 and in the assay with UACC-62 was > 100 µM (inactive) each time.
For `CN(C)c1ccc(/C=C(\NC(=O)c2ccccc2)C(=O)Nc2cccc(C(=O)NCCCO)c2)cc1`, the GI50 in the assay with 786-0 is > 100 µM (inactive); with A549, > 100 µM (inactive); in the assay on CAKI-1, > 100 µM (inactive); in the assay on COLO 205, > 100 µM (inactive); with HCT-15, above 100 µM; in the assay with Hs-578T, > 100 µM (inactive). Also, the GI50 in the assay on MDA-MB-231, with Malme-3M, with NCI-H226, in the assay on NCI-H460, in the assay on NCI-H522 and in the assay with OVCAR-4 was > 100 µM (inactive) in each case. For the same compound, the GI50 in the assay with OVCAR-5, in the assay with SF-268, in the assay with SF-295, with SF-539, in the assay with SK-MEL-2 and with SN12C was > 100 µM (inactive) each time. Further, the GI50 with TK-10 and in the assay with UACC-62 was > 100 µM (inactive) each time.
